Data: patent publication US12509460B2 (Skyhawk Therapeutics, Inc., priority 2019, dated 2025)
Where two headings read alike, the source gives them in different places.

Columns and labels:
[1] = Quantitative splicing assay (HTT), qPCR; format: cell-based, human; conditions: Homo sapiens; GM04724 lymphoblasts, 24 h, qPCR; read-out: HTT Splicing: E49-50 EC50
Outline: (§1)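 Patient lymphoblasts (50,000 cells/well) dosed immediately after plating for 24 h at 2.5 uM to 0.15 nM in 0.1% DMSO. Lysed, cDNA made directly from cells, and inclusion of the intron 49 cryptic exon quantified by TaqMan qPCR.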

[2] = test system: mHTT protein in GM04724 (CAG 70/20) Huntington's disease patient lymphoblast cells; experiment: mHTT protein assay, 2B7-MW1 assay via Mesoscale Discovery (MSD); format: cell-based, human
Outline: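 Patient lymphoblasts treated 48 h with compound from 10 μM to 0.6 nM. mHTT quantified by MSD 2B7-MW1 immunoassay, whose signal depends on polyQ expansion and HTT size. Viability measured on a replicate plate by CellTiter Glo.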

[3] = test system: SMN protein in spinal muscular atrophy (SMA) patient fibroblasts (GM03813, Coriell); experiment: SMN protein assay, Mesoscale Discovery (MSD); format: cell-based, human; conditions: for EC50: read-out: SMN2 protein EC50
Outline: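 SMA patient fibroblasts (GM03813) seeded at 7000 cells/well and exposed to compound at 2.5 μM to 0.6 nM for 48 hours. Lysates assayed for SMN by MSD immunoassay, with absolute SMN amount calculated from a per-plate SMN standard curve (1 μg/ml to 19.5 pg/ml).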

[4] = test system: MDR1-MDCK cell monolayers; conditions: dog, MDCK-MDR1, 120 min, 5 μM, pH 7.4
Experimental: (§2) Example A13: Assessment of Blood-Brain-Barrier (BBB) Penetration Potential Via an MDCK-MDR1 Permeability Assay
(§3) The permeability of compounds is assessed for BBB penetration potential by use of an MDCK-MDR1 assay (Catalog EA203) performed by Absorption Systems, Exton PA.
(§4) Experimental Procedure: MDR1-MDCK cell monolayers are grown to confluence on collagen-coated, microporous membranes in 12-well assay plates. The permeability assay buffer is Hanks' balanced salt solution containing 10 mM HEPES and 15 mM glucose at a pH of 7.4. The buffer in the receiver chamber also contained 1% bovine serum albumin. The dosing solution concentration is 5 μM of test article in the assay buffer. Cell monolayers are dosed on the apical side (A-to-B) or basolateral side (B-to-A) and incubated at 37° C. with 5% CO2 in a humidified incubator. Samples are taken from the donor and receiver chambers at 120 minutes. Each determination is performed in duplicate. The flux of lucifer yellow is also measured post-experimentally for each monolayer to ensure no damage is inflicted to the cell monolayers during the flux period. All samples are assayed by LC-MS/MS using electrospray ionization.
(§5) The apparent permeability (Papp) and percent recovery are calculated as follows:
(§6) Analytical Method: Liquid Chromatography. Column: Waters ACQUITY UPLC BEH Phenyl 30 ×2.1 mm, 1.7 μm; M.P. Buffer. 25 mM ammonium formate buffer, pH 3.5; Aqueous Reservoir (A): 90% water, 10% buffer, Organic Reservoir (B): 90% acetonitrile, 10% buffer, Flow Rate: 0.7 mL/minute; Gradient Program:
(§7) • Total Run Time: 1.00 minute • Autosampler. 2 μL injection volume • Wash1: water/methanol/2-propanol:1/1/1; with 0.2% formic acid • Wash2: 0.1% formic acid in water • Brain Penetration • Potential Classification: A-B Papp≥3.0 and Efflux Ratio <3.0: High • A-B Papp≥3.0 and 10≥Efflux Ratio >3.0: Moderate • A-B Papp≥3.0 and Efflux Ratio≥10: Low • A-B Papp<3.0: Low

[5] = test system: MDR1 (P-gp); experiment: in vitro; conditions: dog, MDCK-MDR1, pH 7.4
Experimental: as §2, §3, §4, §5, §6, §7

[6] = test system: MDR1; experiment: in vitro; conditions: dog, MDCK-MDR1, pH 7.4
Experimental: as §2, §3, §4, §5, §6, §7

[7] = test system: Huntingtin (HTT) transcripts, cryptic exon within intron 49, in GM04724 (CAG 70/20) Huntington's disease patient lymphoblasts; experiment: Quantitative splicing assay (HTT), qPCR; format: cell-based, human; conditions: 24 h, qPCR, read-out: HTT Splicing: E49-50 EC50
Outline: as §1

[8] = test system: MDR1-MDCK cell monolayers; experiment: Blood-brain-barrier (BBB) penetration potential via MDCK-MDR1 permeability assay
Experimental: as §2, §3, §4, §5, §6, §7

[9] = test system: SMN FL and SMN Δ7 in spinal muscular atrophy (SMA) patient fibroblasts (GM03813, Coriell); experiment: Quantitative splicing assay (SMN), qPCR; format: cell-based, human; conditions: Homo sapiens, Fibroblast; SMA patient fibroblasts GM03813, 24 h, qPCR; read-out: SMN2 Splicing FL EC50
Experimental: Spinal muscular atrophy (SMA) patient fibroblasts (GM03813, Coriell) are plated in 96-well plates at 50,000 cells/well. […] Treated cells are lysed and cDNA synthesized using the Fast Advanced Cells-to-Ct kit (Thermofisher A35378) according to the manufacturer's instructions. 2 μL of each cDNA are used in qPCR reactions. […] Reactions are run in a Quant Studio 6 qPCR instrument with default settings.

[10] = GM04724 Huntington's disease patient lymphoblasts
[11] = SMA patient fibroblasts GM03813, 48 hours, MSD
[12] = GM04724 (CAG 70/20) Huntington's disease patient lymphoblasts
[13] = SMA patient fibroblasts (GM03813), 48 hours

| Structure (SMILES) | EC50 [1] [µM] | EC50 [2, 10] [µM] | EC50 [3, 11] [µM] | MDCK-MDR1: % Recov A-B [4] [%] | MDCK-MDR1: % Recov B-A [4] [%] | Papp A→B at 120 min, 5 μM [5] [×10⁻⁶ cm/s] | Papp B→A at 120 min, 5 μM [5] [×10⁻⁶ cm/s] | efflux ratio at 120 min, 5 μM [6] | SMN2 protein EC50 [3, 11] | mHTT protein EC50 [2, 12] | EC50 [3, 13] [µM] | SMN2 protein EC50 [3, 13] | mHTT protein EC50 [2, 10] | EC50 [7] [µM] | MDCK-MDR1: % Recov A-B ([8]; A-B direction) [%] | MDCK-MDR1: Papp A-B ([8]; A-B direction) | MDCK-MDR1: % Recov B-A ([8]; B-A direction) [%] | MDCK-MDR1: Papp B-A ([8]; B-A direction) | MDCK-MDR1: Efflux ([8]; efflux ratio) | EC50 [9] [µM] |
| --- | --- | --- | --- | --- | --- | --- | --- | --- | --- | --- | --- | --- | --- | --- | --- | --- | --- | --- | --- | --- |
| Cn1cnc2cc(-c3ccc(N(C4CC4)[C@@H]4C[C@H]5CC[C@H](N5)[C@@H]4F)nn3)c(O)cc2c1=O [Compound 56A, 7-(6-(cyclopropyl((1S,2S,3R,5R)-2-fluoro-8-azabicyclo[3.2.1]octan-3-yl)amino)pyridazin-3-yl)-6-hydroxy-3-methylquinazolin-4(3H)-one] | 0.01 to 0.501 | 0.101 to 0.5 | 0.101 to 0.5 | 83 | 83 | 0.92 | 51.4 | 56 | – | – | – | – | – | – | – | – | – | – | – | – |
| CN(c1ccc(-c2cc3ccn(C)c(=O)c3cc2O)nn1)[C@H]1C[C@@H]2CC[C@H]([C@H]1F)N2C (single isomer, unassigned) [Compound 97B] | 0.101 to 0.5 | 0.101 to 0.5 | 0.101 to 0.5 | 85 | 83 | 1.96 | 53.1 | 27 | – | – | – | – | – | – | – | – | – | – | – | – |
| CN(c1ccc(-c2cc(C#N)ccc2O)nn1)[C@H]1C[C@@H]2CC[C@@H](N2)[C@H]1F (single isomer, unassigned) [Compound 70B] | 0.01 to 0.501 | 0.101 to 0.5 | – | 95 | 100 | 3.84 | 58.1 | 15 | E (501 ≤ E ≤ 10.000) | – | – | – | – | – | – | – | – | – | – | – |
| CN(c1ccc(-c2ccc(-n3cnc(C(=O)NC(C)(C)C)c3)cc2O)nn1)[C@@H]1C[C@H]2CC[C@H](N2)[C@@H]1F (single isomer, unassigned) [Compound 124A] | – | – | – | 78 | 78 | 0.34 | 45.7 | 133 | – | E (501 ≤ E ≤ 10.000) | 0.101 to 0.5 | – | – | – | – | – | – | – | – | – |
| CN1[C@H]2CC[C@@H]1[C@@H](F)[C@@H](N(c1ccc(-c3cc4ncn(CC(F)(F)F)c(=O)c4cc3O)nn1)C1CC1)C2 (single isomer, unassigned) [Compound 111B] | – | – | – | 74 | 56 | 0.66 | 35.9 | 54 | – | E (501 ≤ E ≤ 10.000) | – | E (501 ≤ E ≤ 10.000) | – | – | – | – | – | – | – | – |
| CN(C)C(=O)c1cc(O)c(-c2ccc(N(C)[C@H]3C[C@@H]4CC[C@H]([C@H]3F)N4C)nn2)cc1F (single isomer, unassigned) [Compound 104B] | – | – | – | 99 | 105 | 0.89 | 50.2 | 56 | – | E (501 ≤ E ≤ 10.000) | – | E (501 ≤ E ≤ 10.000) | – | – | – | – | – | – | – | – |
| CN(C)C(=O)c1cc(O)c(-c2ccc(N(C)[C@@H]3C[C@H]4CC[C@@H]([C@@H]3F)N4C)nn2)cc1F (single isomer, unassigned) [Compound 104A] | – | – | – | 106 | 105 | 1.23 | 43.1 | 35 | – | E (501 ≤ E ≤ 10.000) | – | E (501 ≤ E ≤ 10.000) | – | – | – | – | – | – | – | – |
| CN1[C@@H]2CC[C@H]1[C@H](F)[C@H](N(c1ccc(-c3cc4oc(C(=O)N5CCC5)cc4cc3O)nn1)C1CC1)C2 (single isomer, unassigned) [Compound 92A] | – | – | – | 93 | 88 | 1.23 | 57.8 | 47 | E (501 ≤ E ≤ 10.000) | – | – | – | E (501 ≤ E ≤ 10.000) | – | – | – | – | – | – | – |
| CN(c1ccc(-c2cn3c(=O)ccnc3cc2O)nn1)[C@@H]1C[C@H]2CC[C@H](N2)[C@@H]1F (single isomer, unassigned) [Compound 82A] | – | – | 0.101 to 0.5 | 104 | 121 | 0.08 | 3.33 | 40 | – | – | – | – | E (501 ≤ E ≤ 10.000) | – | – | – | – | – | – | – |
| CN(c1ccc(-c2ccc(C3CC3)cc2O)nn1)[C@@H]1C[C@H]2CC[C@H](N2)[C@@H]1F (single isomer, unassigned) [Compound 31A] | – | – | – | 45 | 66 | 8.77 | 31.3 | 4 | E (501 ≤ E ≤ 10.000) | – | – | – | E (501 ≤ E ≤ 10.000) | – | – | – | – | – | – | – |
| CN(c1ccc(-c2ccc(-c3cnn(C)c3)cc2O)nn1)C1CC2COCC(N2)C1F (single isomer, unassigned) [Compound 80B] | – | 0.016 to 0.05 | 0.101 to 0.5 | – | – | – | – | – | – | – | – | – | – | 0.051 to 0.1 | 76 | 6.01 10^−6, cm/s | 87 | 40.8 10^−6, cm/s | 7 | – |
| CN(c1ccc(-c2ccccc2O)nn1)[C@H]1C[C@@H]2CC[C@@H](N2)[C@H]1F (single isomer, unassigned) [Compound 119B] | – | – | – | 93 | 95 | 6.13 | 58.2 | 9 | – | E (501 ≤ E ≤ 10.000) | – | E (501 ≤ E ≤ 10.000) | – | – | – | – | – | – | – | – |
| CN(c1ccc(-c2ccc(Oc3cnn(C)c3)cc2O)nn1)[C@@H]1C[C@H]2CC[C@H](N2)[C@@H]1F (single isomer, unassigned) [Compound 91A] | – | – | 0.101 to 0.5 | 84 | 82 | 4.19 | 62.8 | 15 | – | – | – | – | E (501 ≤ E ≤ 10.000) | – | – | – | – | – | – | – |
| CN(c1ccc(-c2cnc(C#N)cc2O)nn1)[C@H]1C[C@@H]2CC[C@@H](N2)[C@H]1F (single isomer, unassigned) [Compound 71B] | – | – | – | 90 | 89 | 5.04 | 20.9 | 4 | E (501 ≤ E ≤ 10.000) | – | – | – | E (501 ≤ E ≤ 10.000) | – | – | – | – | – | – | – |
| CN(c1ccc(-c2cc(F)c(-n3ccnn3)cc2O)nn1)[C@@H]1C[C@H]2CC[C@@H]([C@@H]1F)N2C [Compound 103A, 4-fluoro-2-(6-(((1S,2S,3R,5R)-2-fluoro-8-methyl-8-azabicyclo[3.2.1]octan-3-yl)(methyl)amino)pyridazin-3-yl)-5-(1H-1,2,3-triazol-1-yl)phenol] | – | – | – | 86 | 91 | 13.9 | 60.3 | 4 | – | E (501 ≤ E ≤ 10.000) | – | E (501 ≤ E ≤ 10.000) | – | – | – | – | – | – | – | – |
| CNC(=O)c1cc(O)c(-c2ccc(N(C)[C@@H]3C[C@H]4CC[C@H](N4)[C@@H]3F)nn2)cc1F [Compound 47A, 2-fluoro-4-(6-(((1S,2S,3R,5R)-2-fluoro-8-azabicyclo[3.2.1]octan-3-yl)(methyl)amino)pyridazin-3-yl)-5-hydroxy-N-methylbenzamide] | – | 0.101 to 0.5 | 0.101 to 0.5 | 98 | 108 | 1.45 | 49.3 | 34 | – | – | – | – | – | – | – | – | – | – | – | 0.501 to 10 |
| CCc1cn(-c2ccc(-c3ccc(N(C)[C@H]4C[C@@H]5CC(F)(F)[C@H](C4)N5)nn3)c(O)c2)cn1 [Compound 18B, 2-(6-(((1R,3S,5S)-6,6-difluoro-8-azabicyclo[3.2.1]octan-3-yl)(methyl)amino)pyridazin-3-yl)-5-(4-ethyl-1H-imidazol-1-yl)phenol] | – | 0.101 to 0.5 | – | 55 | 69 | 8.37 | 35.6 | 4 | E (501 ≤ E ≤ 10.000) | – | – | – | – | – | – | – | – | – | – | – |
